# Data reported in patent US20170290774A1, “NEUROKININ-1 RECEPTOR ANTAGONIST COMPOSITION FOR TREATMENT OF DISEASES AND CONDITIONS OF THE RESPIRATORY TRACT” (PLUS VITECH, S.L., priority 2014, published 2017).
# Key:
# [1] = test system: MMP-11; assay: Immunohistochemistry of MMP-11 in respiratory tract tissue of sodium hypochlorite aerosol-treated rabbits; type: in vivo, New Zealand albino rabbits
# From the text: (§1) It is known that the factors TGF-α, TGF-β 1, TGF-β 2, TGF-β 3, SPARC, MMP-3; MMP-7, MMP-9, MMP-11, MMP-13 and MMP-14, TGF-β, NF-kB, EGF, MMP-9, VEGF and TNF-α which are produced by lung cells (pneumocytes, fibroblasts and vascular endothelial cells) and inflammatory cells (macrophages, lymphocytes and polymorphonuclear leukocytes) are involved in the pathophysiology and development of said respiratory tract diseases. […] Herein, 27 New Zealand albino rabbits (New Zealand White Rabbit) with an initial average weight about 3 kg were used in this example. All subjects were administered an aerosol of a solution consisting of a mixture of water and sodium hypochlorite (35 g sodium hypochlorite per liter of water) at a rate of 5 mL of said solution by inhalation three times a day for 7 days (days 1 to 7 of experimentation). Subsequently, from days 3 to 7, a group of 3 rabbits (Group 1) was administered an oral dose of 10 mg/kg body weight per day, another group of 3 rabbits (Group 2) was administered an oral dose of 40 mg/kg body weight per day, a third group (Group 3) was administered an oral dose of 80 mg/kg body weight per day and a fourth group (Group 4) was administered an oral dose of 100 mg/kg body weight per day. […] This mixture was administered as an aerosol by inhalation, also from days 3 to 7, to a group of 3 rabbits (group 5) at a dose of 0.05 mg/kg body weight per day, to another group of three rabbits (Group 6) at a dose of 0.1 mg/kg body weight per day, to another group of three rabbits (Group 7) at a dose of 0.2 mg/kg body weight per day and to another group of three rabbits (Group 8) at a dose of 0.4 mg/kg body weight per day. A placebo consisting only of olive oil was administered from days 3 to 7 to a control group of 3 rabbits (placebo group). In parallel, 3 rabbits were kept under identical conditions but were not administered any treatment nor the aforementioned sodium hypochlorite solution (control group). […] On day 7 of the experiment all animals were euthanized and necropsied. […] Samples were taken at the peripheral level of the lung parenchyma, just below the pleural surface. Tissue samples were also taken from the nasal cavity, pharynx, larynx and bronchi. Immunohistochemistry studies were performed for all samples to evaluate the levels of the markers TGF-α, TGF-β 1, TGF-β 2, TGF-β 3 SPARC, MMP-3; MMP-7, MMP-9, MMP-11, MMP-14, TGF-β, TNF-α and VEGF. In said immunohistochemistry studies, a sample of each sample was dehydrated by treatment with increasing concentrations of ethanol and finally xylene. Subsequently said dried samples were embedded in paraffin, thus creating a block. Said paraffin blocks were cut on a microtome to a thickness of 5 μm, and the resulting sections (slices) were placed on slides suitable for conducting immunohistochemistry techniques. Subsequently, the sections were deparaffinised by immersion in xylene and then rehydrated through immersion in a series of solutions containing decreasing concentrations of ethanol and, finally, water. […] The samples were then allowed to cool to room temperature over 10 minutes. Endogenous peroxidase activity was blocked by treatment with 3% hydrogen peroxide over 30 min at room temperature. […] In order to verify the expression of NK1 receptors, the cell samples were incubated in the presence of anti-NK1 antibodies ([…], Sigma-Aldrich) diluted 1:1000 at 4° C. overnight. After this time they were washed in 0.05M Tris buffer at room temperature. Subsequently, Envision System-HRP (Dako) reagents were added for 30 min at room temperature. Once this time had expired, the samples were again washed with 0.05 M Tris buffer, and immunoreactivity was visualized by light microscopy with a chromogenic solution with 3,3'-diaminobenzidine (DAB+; Dako, USA). In order to differentiate the cell nuclei, these were lightly stained with haematoxylin. Samples that were not incubated with the primary antibody, but wherein this was replaced by a non-immune serum were used as negative controls. […]
# [2] = test system: TNF-α; assay: Immunohistochemistry of TNF-α in respiratory tract tissue of sodium hypochlorite aerosol-treated rabbits; type: in vivo, New Zealand albino rabbits
# From the text: as §1
# [3] = bronchial tissue, Group 1, oral 10 mg/kg per day
# [4] = bronchial tissue, Group 2, oral 40 mg/kg per day
# [5] = bronchial tissue, Group 3, oral 80 mg/kg per day
# [6] = bronchial tissue, Group 4, oral 100 mg/kg per day
# [7] = laryngeal tissue, Group 1, oral 10 mg/kg per day
# [8] = laryngeal tissue, Group 2, oral 40 mg/kg per day
# [9] = laryngeal tissue, Group 3, oral 80 mg/kg per day
# [10] = laryngeal tissue, Group 4, oral 100 mg/kg per day
# [11] = laryngeal tissue, Group 5, inhalation 0.05 mg/kg per day
# [12] = laryngeal tissue, Group 6, inhalation 0.1 mg/kg per day
# [13] = laryngeal tissue, Group 7, inhalation 0.2 mg/kg per day
# [14] = laryngeal tissue, Group 8, inhalation 0.4 mg/kg per day
# [15] = lung tissue, Group 1, oral 10 mg/kg per day
# [16] = lung tissue, Group 2, oral 40 mg/kg per day
# [17] = lung tissue, Group 3, oral 80 mg/kg per day
# [18] = lung tissue, Group 4, oral 100 mg/kg per day
# [19] = lung tissue, Group 5, inhalation 0.05 mg/kg per day
# [20] = lung tissue, Group 6, inhalation 0.1 mg/kg per day
# [21] = lung tissue, Group 7, inhalation 0.2 mg/kg per day
# [22] = lung tissue, Group 8, inhalation 0.4 mg/kg per day
# [23] = nasal cavity tissue, Group 1, oral 10 mg/kg per day
# [24] = nasal cavity tissue, Group 2, oral 40 mg/kg per day
# [25] = nasal cavity tissue, Group 3, oral 80 mg/kg per day
# [26] = nasal cavity tissue, Group 4, oral 100 mg/kg per day
# [27] = nasal cavity tissue, Group 5, inhalation 0.05 mg/kg per day
# [28] = nasal cavity tissue, Group 6, inhalation 0.1 mg/kg per day
# [29] = nasal cavity tissue, Group 7, inhalation 0.2 mg/kg per day
# [30] = nasal cavity tissue, Group 8, inhalation 0.4 mg/kg per day
# [31] = pharyngeal tissue, Group 1, oral 10 mg/kg per day
# [32] = pharyngeal tissue, Group 2, oral 40 mg/kg per day
# [33] = pharyngeal tissue, Group 3, oral 80 mg/kg per day
# [34] = pharyngeal tissue, Group 4, oral 100 mg/kg per day
# [35] = pharyngeal tissue, Group 5, inhalation 0.05 mg/kg per day
# [36] = pharyngeal tissue, Group 6, inhalation 0.1 mg/kg per day
# [37] = pharyngeal tissue, Group 7, inhalation 0.2 mg/kg per day
# [38] = pharyngeal tissue, Group 8, inhalation 0.4 mg/kg per day
compound,measurement,setting,value
"C[C@@H](OC1OCCN(Cc2nc(=O)[nH][nH]2)C1c1ccc(F)cc1)c1cc(C(F)(F)F)cc(C(F)(F)F)c1 (stereo in doubt) [Aprepitant, 5-([(2R,3S)-2-((R)-1-[3,5-bis(trifluoromethyl)phenyl]ethoxy)-3-(4-fluorophenyl)morpholino]methyl)-1H-1,2,4-triazol-3(2H)-one]",Percent increase in MMP-11 with respect to the control group,[1]; [3],784.45%
same,Percent increase in MMP-11 with respect to the control group,[1]; [4],673.45%
same,Percent increase in MMP-11 with respect to the control group,[1]; [5],563.45%
same,Percent increase in MMP-11 with respect to the control group,[1]; [6],453.34%
same,% Med G5/C: percent increase in marker MMP-11 with respect to the control group,"[1]; bronchial tissue, Group 5",653.23%
same,% Med G6/C: percent increase in marker MMP-11 with respect to the control group,"[1]; bronchial tissue, Group 6",438.43%
same,% Med G7/C: percent increase in marker MMP-11 with respect to the control group,"[1]; bronchial tissue, Group 7",342.56%
same,% Med G8/C: percent increase in marker MMP-11 with respect to the control group,"[1]; bronchial tissue, Group 8",159.42%
same,Percent increase in MMP-11 with respect to the control group,[1]; [7],789.61%
same,Percent increase in MMP-11 with respect to the control group,[1]; [8],576.17%
same,Percent increase in MMP-11 with respect to the control group,[1]; [9],456.89%
same,Percent increase in MMP-11 with respect to the control group,[1]; [10],324.89%
same,Percent increase in MMP-11 with respect to the control group,[1]; [11],768.34%
same,Percent increase in MMP-11 with respect to the control group,[1]; [12],504.34%
same,Percent increase in MMP-11 with respect to the control group,[1]; [13],203.23%
same,Percent increase in MMP-11 with respect to the control group,[1]; [14],167.36%
same,Percent increase in MMP-11 with respect to the control group,[1]; [15],522.19%
same,Percent increase in MMP-11 with respect to the control group,[1]; [16],416.18%
same,Percent increase in MMP-11 with respect to the control group,[1]; [17],339.86%
same,Percent increase in MMP-11 with respect to the control group,[1]; [18],251.62%
same,Percent increase in MMP-11 with respect to the control group,[1]; [19],520.05%
same,Percent increase in MMP-11 with respect to the control group,[1]; [20],222.75%
same,Percent increase in MMP-11 with respect to the control group,[1]; [21],169.57%
same,Percent increase in MMP-11 with respect to the control group,[1]; [22],128.28%
same,Percent increase in MMP-11 with respect to the control group,[1]; [23],"1,023.73%"
same,Percent increase in MMP-11 with respect to the control group,[1]; [24],609.60%
same,Percent increase in MMP-11 with respect to the control group,[1]; [25],392.70%
same,Percent increase in MMP-11 with respect to the control group,[1]; [26],270.95%
same,Percent increase in MMP-11 with respect to the control group,[1]; [27],"1,215.12%"
same,Percent increase in MMP-11 with respect to the control group,[1]; [28],489.76%
same,Percent increase in MMP-11 with respect to the control group,[1]; [29],266.47%
same,Percent increase in MMP-11 with respect to the control group,[1]; [30],133.33%
same,Percent increase in MMP-11 with respect to the control group,[1]; [31],"1,387.65%"
same,Percent increase in MMP-11 with respect to the control group,[1]; [32],"1,980.45%"
same,Percent increase in MMP-11 with respect to the control group,[1]; [33],980.34%
same,Percent increase in MMP-11 with respect to the control group,[1]; [34],670.45%
same,Percent increase in MMP-11 with respect to the control group,[1]; [35],"1,324.23%"
same,Percent increase in MMP-11 with respect to the control group,[1]; [36],904.21%
same,Percent increase in MMP-11 with respect to the control group,[1]; [37],529.34%
same,Percent increase in MMP-11 with respect to the control group,[1]; [38],109.43%
same,Percent increase in TNF-α with respect to the control group,[2]; [3],789.45%
same,Percent increase in TNF-α with respect to the control group,[2]; [4],580.67%
same,Percent increase in TNF-α with respect to the control group,[2]; [5],467.45%
same,Percent increase in TNF-α with respect to the control group,[2]; [6],356.34%
same,% Med G5/C: percent increase in marker TNF-α with respect to the control group,"[2]; bronchial tissue, Group 5",673.34%
same,% Med G6/C: percent increase in marker TNF-α with respect to the control group,"[2]; bronchial tissue, Group 6",451.23%
same,% Med G7/C: percent increase in marker TNF-α with respect to the control group,"[2]; bronchial tissue, Group 7",325.21%
same,% Med G8/C: percent increase in marker TNF-α with respect to the control group,"[2]; bronchial tissue, Group 8",201.23%
same,Percent increase in TNF-α with respect to the control group,[2]; [7],"1,078.45%"
same,Percent increase in TNF-α with respect to the control group,[2]; [8],809.99%
same,Percent increase in TNF-α with respect to the control group,[2]; [9],708.73%
same,Percent increase in TNF-α with respect to the control group,[2]; [10],509.87%
same,Percent increase in TNF-α with respect to the control group,[2]; [11],879.34%
same,Percent increase in TNF-α with respect to the control group,[2]; [12],456.34%
same,Percent increase in TNF-α with respect to the control group,[2]; [13],323.12%
same,Percent increase in TNF-α with respect to the control group,[2]; [14],150.34%
same,Percent increase in TNF-α with respect to the control group,[2]; [15],859.73%
same,Percent increase in TNF-α with respect to the control group,[2]; [16],685.01%
same,Percent increase in TNF-α with respect to the control group,[2]; [17],607.15%
same,Percent increase in TNF-α with respect to the control group,[2]; [18],463.11%
same,Percent increase in TNF-α with respect to the control group,[2]; [19],980.46%
same,Percent increase in TNF-α with respect to the control group,[2]; [20],470.69%
same,Percent increase in TNF-α with respect to the control group,[2]; [21],218.38%
same,Percent increase in TNF-α with respect to the control group,[2]; [22],151.28%
same,Percent increase in TNF-α with respect to the control group,[2]; [23],"1,411.41%"
same,Percent increase in TNF-α with respect to the control group,[2]; [24],842.93%
same,Percent increase in TNF-α with respect to the control group,[2]; [25],658.65%
same,Percent increase in TNF-α with respect to the control group,[2]; [26],418.29%
same,Percent increase in TNF-α with respect to the control group,[2]; [27],"1,495.60%"
same,Percent increase in TNF-α with respect to the control group,[2]; [28],736.83%
same,Percent increase in TNF-α with respect to the control group,[2]; [29],151.81%
same,Percent increase in TNF-α with respect to the control group,[2]; [30],122.23%
same,Percent increase in TNF-α with respect to the control group,[2]; [31],"1,357.32%"
same,Percent increase in TNF-α with respect to the control group,[2]; [32],987.63%
same,Percent increase in TNF-α with respect to the control group,[2]; [33],789.45%
same,Percent increase in TNF-α with respect to the control group,[2]; [34],418.29%
same,Percent increase in TNF-α with respect to the control group,[2]; [35],"1,532.34%"
same,Percent increase in TNF-α with respect to the control group,[2]; [36],989.36%
same,Percent increase in TNF-α with respect to the control group,[2]; [37],298.67%
same,Percent increase in TNF-α with respect to the control group,[2]; [38],167.34%
